According to patent publication US9540381B2, “Anti-angiogenesis compound, intermediate and use thereof” (Guangzhou KangRui Biological Pharmaceutical Technology Co., …, priority 2013, dated 2017):

Legend:
[1] = system: vessel development of the FLK1-GFP transgenic danio rerio; assay: Inhibition test on vascular development of Danio rerio; type: in vivo
Method: Female fish can spawn 200-300 […], and the fertilization and embryonic development processes are conducted in vitro. They can grow up within 24 hours, and the embryo is transparent, which is suitable for observing the change of intracorporal organs and tissues. These characteristics make the danio rerio become to be one of the five fish laboratory animals accepted by the international organization for standardization. Currently, the danio rerio is widely used in human disease studies, especially used in cardiovascular system studies. The danio rerio can be used for screening the influence of small molecular compounds on angiogenesis. Experimental Method: This experiment uses FLK1-GFP transgenic danio rerio as an animal model which is generally used for screening the influence of compounds on angiogenesis. Vessel can be in vivo observed under fluorescence microscope (Suk-Won Jin, 2005, Development). The selected embryo of the postnatal FLK1-GFP transgenic danio rerio was placed into a culture dish and incubated for 3-5 days in an incubator at 28° C. […] Examine the developmental condition of the vertebral vessel after 24 hours and take photo by use of the fluorescence microscope.

VEGFR2 (KDR) = molecular target: T1, VEGFR2 (KDR) (Homo sapiens, UniProt P35968); assay: Kinase inhibition dosage effect, KDR; type: biochemical
T1 construct: purchased Invitrogen

PDGFR-β [2] = molecular target: T2, PDGFR-β (Homo sapiens, UniProt P09619); assay: Kinase inhibition dosage effect, PDGFR-β; type: biochemical
T2 construct: purchased Upstate

AURORA-B = molecular target: T3, AURORA-B (Homo sapiens, UniProt Q96GD4); assay: Inhibition specificity, AURORA-B; type: biochemical; conditions: 5000 nM, average of two tests; read-out: Average Inhibition Rate (%) AURORA-B
T3 construct: purchased CARNA

BRAF = molecular target: T4, BRAF (Homo sapiens, UniProt P15056); assay: Inhibition specificity, BRAF; type: biochemical; conditions: 5000 nM, average of two tests; read-out: Average Inhibition Rate (%) BRAF
T4 construct: purchased UPSTATE

CHEK1 = molecular target: T5, CHEK1 (Homo sapiens, UniProt O14757); assay: Inhibition specificity, CHEK1; type: biochemical; conditions: 5000 nM, average of two tests; read-out: Average Inhibition Rate (%) CHEK1
T5 construct: purchased CARNA

DMPK = molecular target: T6, DMPK (Homo sapiens, UniProt Q09013); assay: Inhibition specificity, DMPK; type: biochemical; conditions: 5000 nM, average of two tests; read-out: Average Inhibition Rate (%) DMPK
T6 construct: purchased INVITROGEN

EGFR = EGFR (Homo sapiens, UniProt P00533); assay: Inhibition specificity, EGFR; type: biochemical; conditions: 5000 nM, average of two tests; read-out: Average Inhibition Rate (%) EGFR
GSK-3-β = molecular target: T7, GSK-3-β (Homo sapiens, UniProt P49841); assay: Inhibition specificity, GSK-3-β; type: biochemical; conditions: 5000 nM, average of two tests; read-out: Average Inhibition Rate (%) GSK-3-β
T7 construct: purchased UPSTATE

KDR (VEGFR2) = molecular target: T8, KDR (VEGFR2) (Homo sapiens, UniProt P35968); assay: Inhibition specificity, KDR; type: biochemical; conditions: 5000 nM, average of two tests
T8 construct: purchased Invitrogen

KIT = molecular target: T9, KIT (Homo sapiens, UniProt P10721); assay: Inhibition specificity, KIT; type: biochemical; conditions: 5000 nM, average of two tests; read-out: Average Inhibition Rate (%) KIT
T9 construct: purchased INVITROGEN

MAPK3 = molecular target: T10, MAPK3 (Homo sapiens, UniProt P27361); assay: Inhibition specificity, MAPK3; type: biochemical; conditions: 5000 nM, average of two tests; read-out: Average Inhibition Rate (%) MAPK3
T10 construct: purchased INVITROGEN

MEK1 = molecular target: T11, MEK1 (Homo sapiens, UniProt Q02750); assay: Inhibition specificity, MEK1; type: biochemical; conditions: 5000 nM, average of two tests; read-out: Average Inhibition Rate (%) MEK1
T11 construct: purchased UPSTATE

MET = molecular target: T12, MET (Homo sapiens, UniProt P08581); assay: Inhibition specificity, MET; type: biochemical; conditions: 5000 nM, average of two tests; read-out: Average Inhibition Rate (%) MET
T12 construct: purchased INVITROGEN

PDGFR-β [3] = molecular target: T2, PDGFR-β; assay: Inhibition specificity, PDGFR-β; type: biochemical; conditions: 5000 nM, average of two tests; read-out: Average Inhibition Rate (%) PDGFR-β
PI3K-α = molecular target: T13, PI3K-α (Homo sapiens, UniProt P42336); assay: Inhibition specificity, PI3K-α (ADP-Glo); type: biochemical; conditions: 5000 nM, average of two tests; read-out: Average Inhibition Rate (%) PI3K-α
T13 construct: purchased INVITROGEN

PKC-α = molecular target: T14, PKC-α (Homo sapiens, UniProt P17252); assay: Inhibition specificity, PKC-α; type: biochemical; conditions: 5000 nM, average of two tests; read-out: Average Inhibition Rate (%) PKC-α
T14 construct: purchased INVITROGEN

ROCK1 = molecular target: T15, ROCK1 (Homo sapiens, UniProt Q13464); assay: Inhibition specificity, ROCK1; type: biochemical; conditions: 5000 nM, average of two tests; read-out: Average Inhibition Rate (%) ROCK1
T15 construct: purchased CARNA

SRC = molecular target: T16, SRC (Homo sapiens, UniProt P12931); assay: Inhibition specificity, SRC; type: biochemical; conditions: 5000 nM, average of two tests; read-out: Average Inhibition Rate (%) SRC
T16 construct: purchased INVITROGEN

SYK = molecular target: T17, SYK (Homo sapiens, UniProt P43405); assay: Inhibition specificity, SYK; type: biochemical; conditions: 5000 nM, average of two tests; read-out: Average Inhibition Rate (%) SYK
T17 construct: purchased BPS

T2 sequence (P09619 33-1106, species assumed): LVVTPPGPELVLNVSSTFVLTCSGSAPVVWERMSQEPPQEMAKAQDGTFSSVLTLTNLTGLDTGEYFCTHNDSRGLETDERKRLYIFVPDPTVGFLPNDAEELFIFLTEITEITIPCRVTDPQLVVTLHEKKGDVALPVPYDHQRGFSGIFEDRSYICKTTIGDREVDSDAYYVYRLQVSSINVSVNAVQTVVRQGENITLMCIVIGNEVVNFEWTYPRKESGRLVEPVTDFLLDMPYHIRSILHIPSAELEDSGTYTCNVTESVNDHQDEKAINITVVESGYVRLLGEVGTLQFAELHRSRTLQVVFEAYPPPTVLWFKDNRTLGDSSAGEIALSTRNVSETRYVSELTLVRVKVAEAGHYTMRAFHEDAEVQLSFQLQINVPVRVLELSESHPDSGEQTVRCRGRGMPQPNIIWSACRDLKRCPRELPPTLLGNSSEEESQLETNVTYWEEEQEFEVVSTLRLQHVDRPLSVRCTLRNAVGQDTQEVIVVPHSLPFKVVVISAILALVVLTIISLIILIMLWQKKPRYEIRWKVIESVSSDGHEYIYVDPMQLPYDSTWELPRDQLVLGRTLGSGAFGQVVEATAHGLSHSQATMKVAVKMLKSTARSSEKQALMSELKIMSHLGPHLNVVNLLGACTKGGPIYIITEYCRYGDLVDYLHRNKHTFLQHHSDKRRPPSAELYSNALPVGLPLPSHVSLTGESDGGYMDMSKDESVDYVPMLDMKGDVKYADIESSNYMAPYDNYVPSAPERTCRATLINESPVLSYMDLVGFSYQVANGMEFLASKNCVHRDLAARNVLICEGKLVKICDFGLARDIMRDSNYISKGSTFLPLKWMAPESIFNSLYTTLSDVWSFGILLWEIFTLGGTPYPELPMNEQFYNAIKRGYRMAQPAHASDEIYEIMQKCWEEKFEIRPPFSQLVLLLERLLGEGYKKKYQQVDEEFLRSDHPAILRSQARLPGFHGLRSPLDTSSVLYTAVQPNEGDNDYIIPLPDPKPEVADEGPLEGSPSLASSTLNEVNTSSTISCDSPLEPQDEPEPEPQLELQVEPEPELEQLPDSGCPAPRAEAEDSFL
T1 sequence (P35968 20-1356, species assumed): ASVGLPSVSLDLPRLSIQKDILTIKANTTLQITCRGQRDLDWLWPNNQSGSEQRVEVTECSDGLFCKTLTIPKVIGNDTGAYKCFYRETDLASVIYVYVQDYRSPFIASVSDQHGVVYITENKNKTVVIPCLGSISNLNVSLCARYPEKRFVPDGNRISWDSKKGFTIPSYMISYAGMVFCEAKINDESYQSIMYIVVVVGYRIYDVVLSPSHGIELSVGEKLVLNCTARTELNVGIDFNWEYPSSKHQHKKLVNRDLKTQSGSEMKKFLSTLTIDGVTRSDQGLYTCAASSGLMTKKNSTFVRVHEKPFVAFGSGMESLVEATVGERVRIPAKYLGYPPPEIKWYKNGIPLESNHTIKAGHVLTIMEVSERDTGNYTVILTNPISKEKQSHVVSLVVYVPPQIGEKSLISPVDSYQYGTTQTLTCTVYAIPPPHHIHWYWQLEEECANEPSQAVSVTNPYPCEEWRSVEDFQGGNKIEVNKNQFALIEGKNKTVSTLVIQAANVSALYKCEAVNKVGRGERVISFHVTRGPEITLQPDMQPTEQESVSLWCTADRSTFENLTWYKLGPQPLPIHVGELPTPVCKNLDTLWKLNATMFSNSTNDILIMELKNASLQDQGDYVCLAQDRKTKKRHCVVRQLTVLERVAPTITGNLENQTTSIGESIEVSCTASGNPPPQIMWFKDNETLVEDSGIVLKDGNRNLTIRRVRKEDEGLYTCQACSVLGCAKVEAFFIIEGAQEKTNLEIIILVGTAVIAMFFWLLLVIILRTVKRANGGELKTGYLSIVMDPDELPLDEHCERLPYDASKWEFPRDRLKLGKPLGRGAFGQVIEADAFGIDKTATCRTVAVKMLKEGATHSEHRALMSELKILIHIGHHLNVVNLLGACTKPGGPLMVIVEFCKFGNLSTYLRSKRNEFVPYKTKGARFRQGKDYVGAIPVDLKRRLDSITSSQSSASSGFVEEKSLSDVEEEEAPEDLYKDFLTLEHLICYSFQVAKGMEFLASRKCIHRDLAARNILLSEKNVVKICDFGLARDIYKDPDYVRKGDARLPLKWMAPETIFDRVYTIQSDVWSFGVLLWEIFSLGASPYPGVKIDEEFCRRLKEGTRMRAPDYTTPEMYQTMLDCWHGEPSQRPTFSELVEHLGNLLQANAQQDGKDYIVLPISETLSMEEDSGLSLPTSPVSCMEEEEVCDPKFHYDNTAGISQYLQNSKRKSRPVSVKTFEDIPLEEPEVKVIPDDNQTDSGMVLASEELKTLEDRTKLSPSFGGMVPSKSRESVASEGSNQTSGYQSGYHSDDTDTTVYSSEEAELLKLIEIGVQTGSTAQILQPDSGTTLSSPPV
T8 sequence (P35968 20-1356, species assumed): as above
T11 sequence (Q02750 whole entry, species assumed): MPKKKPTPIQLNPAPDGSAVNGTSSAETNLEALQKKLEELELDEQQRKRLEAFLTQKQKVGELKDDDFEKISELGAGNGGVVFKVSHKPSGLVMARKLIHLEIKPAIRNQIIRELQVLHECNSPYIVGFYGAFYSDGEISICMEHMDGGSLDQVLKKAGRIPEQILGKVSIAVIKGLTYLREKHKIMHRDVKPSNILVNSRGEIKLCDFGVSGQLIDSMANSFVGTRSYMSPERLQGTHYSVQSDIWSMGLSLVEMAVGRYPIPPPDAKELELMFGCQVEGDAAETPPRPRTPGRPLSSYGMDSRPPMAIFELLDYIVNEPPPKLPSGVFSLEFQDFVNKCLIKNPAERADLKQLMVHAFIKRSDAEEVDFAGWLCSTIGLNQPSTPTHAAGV
T15 sequence (Q13464 whole entry, species assumed): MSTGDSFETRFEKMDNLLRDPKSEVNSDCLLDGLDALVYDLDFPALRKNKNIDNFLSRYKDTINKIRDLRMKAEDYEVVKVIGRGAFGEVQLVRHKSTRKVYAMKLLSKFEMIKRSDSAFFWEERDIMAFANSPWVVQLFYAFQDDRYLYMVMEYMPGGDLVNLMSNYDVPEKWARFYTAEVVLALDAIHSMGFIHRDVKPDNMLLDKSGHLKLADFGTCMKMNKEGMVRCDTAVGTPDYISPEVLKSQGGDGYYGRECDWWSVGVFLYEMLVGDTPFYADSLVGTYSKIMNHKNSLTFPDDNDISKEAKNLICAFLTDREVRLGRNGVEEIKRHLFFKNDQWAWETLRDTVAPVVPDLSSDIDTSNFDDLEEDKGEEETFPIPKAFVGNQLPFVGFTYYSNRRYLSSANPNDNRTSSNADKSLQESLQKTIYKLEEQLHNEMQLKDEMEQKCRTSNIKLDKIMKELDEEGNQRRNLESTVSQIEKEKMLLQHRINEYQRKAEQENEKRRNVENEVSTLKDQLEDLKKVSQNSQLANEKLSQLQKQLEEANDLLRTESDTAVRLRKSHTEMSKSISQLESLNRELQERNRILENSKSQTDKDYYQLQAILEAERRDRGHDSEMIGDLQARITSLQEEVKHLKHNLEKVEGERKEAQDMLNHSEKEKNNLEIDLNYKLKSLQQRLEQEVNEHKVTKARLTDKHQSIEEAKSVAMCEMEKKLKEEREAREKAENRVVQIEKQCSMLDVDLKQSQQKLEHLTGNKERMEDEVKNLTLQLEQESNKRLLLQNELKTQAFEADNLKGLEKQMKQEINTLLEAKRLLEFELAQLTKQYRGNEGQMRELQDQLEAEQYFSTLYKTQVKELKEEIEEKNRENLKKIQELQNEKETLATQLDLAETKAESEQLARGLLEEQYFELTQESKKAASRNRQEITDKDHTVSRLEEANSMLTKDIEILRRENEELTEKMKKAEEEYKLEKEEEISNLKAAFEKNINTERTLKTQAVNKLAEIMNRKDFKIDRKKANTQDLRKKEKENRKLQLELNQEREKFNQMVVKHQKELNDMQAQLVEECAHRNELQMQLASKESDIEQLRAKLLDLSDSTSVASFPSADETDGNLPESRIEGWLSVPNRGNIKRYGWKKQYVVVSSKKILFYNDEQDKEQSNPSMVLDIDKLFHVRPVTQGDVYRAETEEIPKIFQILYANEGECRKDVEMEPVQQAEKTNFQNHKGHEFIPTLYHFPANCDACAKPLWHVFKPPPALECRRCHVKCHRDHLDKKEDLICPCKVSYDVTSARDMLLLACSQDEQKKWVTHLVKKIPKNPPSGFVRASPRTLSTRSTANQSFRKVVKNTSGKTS
T7 sequence (P49841 whole entry, species assumed): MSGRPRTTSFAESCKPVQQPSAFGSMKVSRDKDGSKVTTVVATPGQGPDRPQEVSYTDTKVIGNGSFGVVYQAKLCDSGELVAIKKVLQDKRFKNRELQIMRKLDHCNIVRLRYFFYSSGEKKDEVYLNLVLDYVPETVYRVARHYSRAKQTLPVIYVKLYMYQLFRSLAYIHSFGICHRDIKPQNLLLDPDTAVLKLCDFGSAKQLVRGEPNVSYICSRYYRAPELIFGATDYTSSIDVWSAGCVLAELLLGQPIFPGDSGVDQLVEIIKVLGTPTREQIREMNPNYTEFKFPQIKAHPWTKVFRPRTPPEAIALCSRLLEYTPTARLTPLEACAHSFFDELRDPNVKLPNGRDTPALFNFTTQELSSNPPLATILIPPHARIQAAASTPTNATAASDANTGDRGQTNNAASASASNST
T3 sequence (Q96GD4 whole entry): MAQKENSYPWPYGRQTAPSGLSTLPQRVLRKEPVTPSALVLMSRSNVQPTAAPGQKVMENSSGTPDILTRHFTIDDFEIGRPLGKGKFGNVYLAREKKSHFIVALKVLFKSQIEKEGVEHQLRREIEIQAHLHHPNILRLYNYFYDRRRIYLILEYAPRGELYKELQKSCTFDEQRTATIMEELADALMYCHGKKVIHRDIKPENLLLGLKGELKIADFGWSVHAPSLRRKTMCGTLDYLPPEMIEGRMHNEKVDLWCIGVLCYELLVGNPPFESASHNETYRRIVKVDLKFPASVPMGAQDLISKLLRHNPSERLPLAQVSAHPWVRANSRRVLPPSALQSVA

Structure (SMILES): Nc1nccc(Oc2ccc3c(C(=O)Nc4cccc(C(F)(F)F)c4)cccc3n2)n1 [Compound 2-2]
- inhibition at 0.1 µM ([1]; Danio rerio, 100 nM, after 24 hours, n = 5, read-out: inhibition rate on the development of vertebral vessel): 50%
- inhibition at 1 µM ([1]; Danio rerio, 1 μM, after 24 hours, n = 5, read-out: inhibition rate on the development of vertebral vessel): 100%
- inhibition at 5 µM ([1]; Danio rerio, 5 μM, after 24 hours, n = 5, read-out: inhibition rate on the development of vertebral vessel): 100%
- inhibition at 10 µM ([1]; Danio rerio, 10 μM, after 24 hours, n = 5, read-out: inhibition rate on the development of vertebral vessel): 100%
- inhibition at 20 µM ([1]; Danio rerio, 20 μM, after 24 hours, n = 5, read-out: inhibition rate on the development of vertebral vessel): 100%
- inhibition at 40 µM ([1]; Danio rerio, 40 μM, after 24 hours, n = 5, read-out: inhibition rate on the development of vertebral vessel): 100%
- inhibition at 100 µM ([1]; Danio rerio, 100 μM, after 24 hours, n = 5, read-out: inhibition rate on the development of vertebral vessel): 100%
- inhibition effect on the vessel development of the danio rerio (in words) ([1]; Table 1 and FIG. 7): have inhibition effect on the vessel development of the danio rerio
- inhibition activity on KDR (in words) (VEGFR2 (KDR)): good inhibition activity
- IC50 (VEGFR2 (KDR); [ATP] 80 μM, 3 hr): 0.00731 µM
- Inhibition Rate on KDR (%) (VEGFR2 (KDR); concentration 0.0002823 (uM)): 5.09%
- Inhibition Rate on KDR (%) (VEGFR2 (KDR); concentration 0.0008468 (uM)): 11.82%
- Inhibition Rate on KDR (%) (VEGFR2 (KDR); concentration 0.0025403 (uM)): 25.59%
- Inhibition Rate on KDR (%) (VEGFR2 (KDR); concentration 0.0076208 (uM)): 49.36%
- Inhibition Rate on KDR (%) (VEGFR2 (KDR); concentration 0.0228624 (uM)): 78.25%
- Inhibition Rate on KDR (%) (VEGFR2 (KDR); concentration 0.0685871 (uM)): 90.14%
- Inhibition Rate on KDR (%) (VEGFR2 (KDR); concentration 0.2057613 (uM)): 92.95%
- Inhibition Rate on KDR (%) (VEGFR2 (KDR); concentration 0.6172840 (uM)): 94.82%
- Inhibition Rate on KDR (%) (VEGFR2 (KDR); concentration 1.8518519 (uM)): 97.30%
- Inhibition Rate on KDR (%) (VEGFR2 (KDR); concentration 5.5555556 (uM)): 96.50%
- Inhibition Rate on KDR (%) (VEGFR2 (KDR); concentration 16.6666667 (uM)): 94.47%
- Inhibition Rate on KDR (%) (VEGFR2 (KDR); concentration 50 (uM)): 95.99%
- Hill KDR (VEGFR2 (KDR); dose-effect curve fit): 1.175
- inhibition activity on PDGFR-β (in words) (PDGFR-β [2]): good inhibition activity
- IC50 (PDGFR-β [2]; [ATP] 30 μM, 3 hr): 0.15 µM
- Inhibition Rate on PDGFR-β (%) (PDGFR-β [2]; concentration 0.0002823 (uM)): 0.62%
- Inhibition Rate on PDGFR-β (%) (PDGFR-β [2]; concentration 0.0008468 (uM)): 0.49%
- Inhibition Rate on PDGFR-β (%) (PDGFR-β [2]; concentration 0.0025403 (uM)): −0.84%
- Inhibition Rate on PDGFR-β (%) (PDGFR-β [2]; concentration 0.0076208 (uM)): 2.85%
- Inhibition Rate on PDGFR-β (%) (PDGFR-β [2]; concentration 0.0228624 (uM)): 15.13%
- Inhibition Rate on PDGFR-β (%) (PDGFR-β [2]; concentration 0.0685871 (uM)): 34.21%
- Inhibition Rate on PDGFR-β (%) (PDGFR-β [2]; concentration 0.2057613 (uM)): 55.90%
- Inhibition Rate on PDGFR-β (%) (PDGFR-β [2]; concentration 0.6172840 (uM)): 78.29%
- Inhibition Rate on PDGFR-β (%) (PDGFR-β [2]; concentration 1.8518519 (uM)): 91.57%
- Inhibition Rate on PDGFR-β (%) (PDGFR-β [2]; concentration 5.5555556 (uM)): 96.43%
- Inhibition Rate on PDGFR-β (%) (PDGFR-β [2]; concentration 16.6666667 (uM)): 97.95%
- Inhibition Rate on PDGFR-β (%) (PDGFR-β [2]; concentration 50 (uM)): 98.80%
- Hill PDGFR-β (PDGFR-β [2]; dose-effect curve fit): 0.92
- inhibition at 5 µM (AURORA-B): 13.6%
- inhibition at 5 µM (BRAF): 37.4%
- inhibition at 5 µM (CHEK1): 0.695%
- inhibition at 5 µM (DMPK): 4.5%
- inhibition at 5 µM (EGFR): -0.625%
- inhibition at 5 µM (GSK-3-β): 0.555%
- Average Inhibition Rate (%) KDR (KDR (VEGFR2); 5 µM): 100.1%
- inhibition at 5 µM (KDR (VEGFR2); read-out: Average Inhibition Rate (%) KDR): 100%
- inhibition at 5 µM (KIT): ~92%
- inhibition at 5 µM (MAPK3): 1.12%
- inhibition at 5 µM (MEK1): 4.96%
- inhibition at 5 µM (MET): 2.46%
- inhibition at 5 µM (PDGFR-β [3]): ~97%
- inhibition at 5 µM (PI3K-α): -7.1%
- inhibition at 5 µM (PKC-α): 2.63%
- inhibition at 5 µM (ROCK1): 1.39%
- inhibition at 5 µM (SRC): ~65%
- inhibition at 5 µM (SYK): -5.87%
